Experimental data published in patent US4308181A, “Polypeptide compositions” (American Home Products Corporation, priority 1980, dated 1981).
Residues, ends and D or L forms follow the SMILES beside them.

Test system: T lymphocytes isolated from spleens of male CBA/J or NZB mice
Test: T lymphocyte proliferation, 3H-thymidine uptake
Format: cell-based
Details: 48 h culture
Procedure: The activity of the compounds of the Examples is determined according to the following procedure:
T lymphocytes are isolated from spleens of male CBA/J or NZB mice. Cell homogenates are prepared in Hank's balanced salt solution (HBSS). After removal of larger particles and repeated washing of the cells in HBSS they are suspended in minimum essential medium (MEM) and passed through a glass wool column to remove macrophages. The cells are then incubated on a nylon wool column at 37° C., 95% air, 5% CO2, for 45 minutes. The non-adherant T lymphocytes are then eluted from the column, counted, and adjusted to 20×10^6 cells/ml. 50 μl. of cells are cultured (37° C., 95% air, 5% CO2) with compound, for 48 hours before addition of 0.5 μCi. of 3H-thymidine for the last 16 hours of culture. The total volume of the culture system is 200 μ l. The cells are then harvested on a multiple automatic sample harvester (MashII), the glass fiber filter disks placed in 10 ml. of xylene base scintillation fluid, and counted for 1 minute in a liquid scintillation counter. Results are reported as CPM+SE. Comparisons are made between counts obtained with control cultures and cultures containing compound and a determination made as to whether the compounds are active at the dosage tested.

[1] = 0.75 ng/culture, run with control 19,275 ± 1298
[2] = 1.5 ng/culture, run with control 9,876 ± 951
[3] = 1.5 ng/culture, run with control 19,275 ± 1298
[4] = 6.0 ng/culture, run with control 9,876 ± 951
[5] = 6.0 ng/culture, run with control 19,275 ± 1298
[6] = 25 ng/culture, run with control 9,876 ± 951
[7] = 100 ng/culture, run with control 9,876 ± 951

| Compound | H-Thymidine Uptake CPM + S.E. [1] | H-Thymidine Uptake CPM + S.E. [2] | H-Thymidine Uptake CPM + S.E. [3] | H-Thymidine Uptake CPM + S.E. [4] | H-Thymidine Uptake CPM + S.E. [5] | H-Thymidine Uptake CPM + S.E. [6] | H-Thymidine Uptake CPM + S.E. [7] | H-Thymidine Uptake CPM + S.E. (25 ng/culture, run with control 19,275 ± 1298) |
| --- | --- | --- | --- | --- | --- | --- | --- | --- |
| CC(=O)NCC(=O)N[C@@H](CO)C(=O)N[C@@H](Cc1c[nH]cn1)C(=O)N[C@@H](CC(C)C)C(N)=O [Ac--Gly--Ser--His--Leu--NH2, N-acetylglycyl-L-seryl-L-histidyl-L-leucinaminde, acetate] (Ac-GSHL-NH2) | 41,019 ± 6047 CPM | 15,028 ± 1178 CPM | 48,033 ± 5499 CPM | 19,423 ± 1031 CPM | 38,254 ± 7188 CPM | 19,433 ± 3092 CPM | 20,409 ± 4081 CPM |  |
| CC(=O)N[C@@H](CO)C(=O)N[C@@H](Cc1c[nH]cn1)C(=O)N[C@@H](CC(C)C)C(=O)N[C@H](C(N)=O)C(C)C.CC(=O)O [Ac--Ser--His--Leu--Val--NH2, N-acetylseryl-L-histidyl-L-leucyl-L-valinamide, acetate] (Ac-SHLV-NH2) | 26,137 ± 6158 CPM | 30,925 ± 3256 CPM | 32,646 ± 2284 CPM | 26,741 ± 3049 CPM | 30,425 ± 8896 CPM | 28,206 ± 2233 CPM | 20,758 ± 3027 CPM | 32,278 ± 5373 CPM |
